Measurements taken from patent US20240018161A1, “MODULATORS OF CYSTIC FIBROSIS TRANSMEMBRANE CONDUCTANCE REGULATOR” (VERTEX PHARMACEUTICALS INCORPORATED, priority 2020, published 2024).
Where two headings read alike, the source gives them in different places.

Biological target: CFTR-mediated chloride transport in human intestinal epithelial enteroid cells (Homo sapiens, UniProt P13569)
Experiment: Membrane potential dye, Enteroid Assay A
Format: cell-based
Settings: for EC50: read-out: Ent. A EC50
Protocol: Base medium (ADF+++) consisted of Advanced DMEM/Ham's F12, 2 mM Glutamax, 10 mM HEPES, […] penicillin/streptomycin.
Bath 1 Buffer consisted of 1 mM MgCl2, 160 mM NaCl, 4.5 mM KCl, 10 mM HEPES, 10 mM Glucose, 2 mM CaCl2.
Chloride Free Buffer consisted of 1 mM Magnesium Gluconate, 2 mM Calcium Gluconate, 4.5 mM Potassium Gluconate, 160 mM Sodium Gluconate, 10 mM HEPES, 10 mM Glucose.
Bath1 Dye Solution consisted of Bath 1 Buffer, 0.04% Pluronic F127, 20 μM Methyl Oxonol, 30 μM CaCCinh-A01, 30 μM Chicago Sky Blue.
Chloride Free Dye Solution consisted of Chloride Free Buffer, 0.04% Pluronic F127, 20 μM Methyl Oxonol, 30 μM CaCCinh-A01, 30 μM Chicago Sky Blue.
3. Enteroid Cell Harvesting and Seeding
Cells were recovered in cell recovery solution, collected by centrifugation at 650 rpm for 5 min at 4° C., resuspended in TryPLE and incubated for 5 min at 37° C. Cells were then collected by centrifugation at 650 rpm for 5 min at 4° C. and resuspended in IEMM containing 10 μM ROCK inhibitor (RI).
4. Membrane Potential Dye, Enteroid Assay A
Briefly, cells were washed 5 times in Bath 1 Buffer. Bath 1 Dye Solution was added, and the cells were incubated for 25 min at room temperature. Following dye incubation, cells were washed 3 times in Chloride Free Dye Solution. Chloride transport was initiated by addition of Chloride Free Dye Stimulation Solution and the fluorescence signal was read for 15 min. […] Chloride transport was then expressed as a percentage of the chloride transport following treatment with 3 μM N-[(6-amino-2-pyridyl)sulfonyl]-6-(3-fluoro-5-isobutoxy-phenyl)-2-[(4S)-2,2,4-trimethylpyrrolidin-1-yl]pyridine-3-carboxamide, 3 μM (R)-1-(2,2-difluorobenzo[d][1,3]dioxol-5-yl)-N-(1-(2,3-dihydroxypropyl)-6-fluoro-2-(1-hydroxy-2-methylpropan-2-yl)-1H-indol-5-yl)cyclopropanecarboxamide and 300 nM acute N-[2,4-bis(1,1-dimethylethyl)-5-hydroxyphenyl]-1,4-dihydro-4-oxoquinoline-3-carboxamide triple combination control (% Activity).

[1] = percentage of chloride transport of triple combination control (3 μM N-[(6-amino-2-pyridyl)sulfonyl]-6-(3-fluoro-5-isobutoxy-phenyl)-2-[(4S)-2,2,4-trimethylpyrrolidin-1-yl]pyridine-3-carboxamide based)
[2] = enteroid cells incubated with test compound 18-24 hours, acute 10 μM forskolin and 300 nM N-[2,4-bis(1,1-dimethylethyl)-5-hydroxyphenyl]-1,4-dihydro-4-oxoquinoline-3-carboxamide

CFTR-mediated chloride transport in human intestinal epithelial enteroid cells, sequence (P13569 with tags, fused parts or gaps DEL508-508): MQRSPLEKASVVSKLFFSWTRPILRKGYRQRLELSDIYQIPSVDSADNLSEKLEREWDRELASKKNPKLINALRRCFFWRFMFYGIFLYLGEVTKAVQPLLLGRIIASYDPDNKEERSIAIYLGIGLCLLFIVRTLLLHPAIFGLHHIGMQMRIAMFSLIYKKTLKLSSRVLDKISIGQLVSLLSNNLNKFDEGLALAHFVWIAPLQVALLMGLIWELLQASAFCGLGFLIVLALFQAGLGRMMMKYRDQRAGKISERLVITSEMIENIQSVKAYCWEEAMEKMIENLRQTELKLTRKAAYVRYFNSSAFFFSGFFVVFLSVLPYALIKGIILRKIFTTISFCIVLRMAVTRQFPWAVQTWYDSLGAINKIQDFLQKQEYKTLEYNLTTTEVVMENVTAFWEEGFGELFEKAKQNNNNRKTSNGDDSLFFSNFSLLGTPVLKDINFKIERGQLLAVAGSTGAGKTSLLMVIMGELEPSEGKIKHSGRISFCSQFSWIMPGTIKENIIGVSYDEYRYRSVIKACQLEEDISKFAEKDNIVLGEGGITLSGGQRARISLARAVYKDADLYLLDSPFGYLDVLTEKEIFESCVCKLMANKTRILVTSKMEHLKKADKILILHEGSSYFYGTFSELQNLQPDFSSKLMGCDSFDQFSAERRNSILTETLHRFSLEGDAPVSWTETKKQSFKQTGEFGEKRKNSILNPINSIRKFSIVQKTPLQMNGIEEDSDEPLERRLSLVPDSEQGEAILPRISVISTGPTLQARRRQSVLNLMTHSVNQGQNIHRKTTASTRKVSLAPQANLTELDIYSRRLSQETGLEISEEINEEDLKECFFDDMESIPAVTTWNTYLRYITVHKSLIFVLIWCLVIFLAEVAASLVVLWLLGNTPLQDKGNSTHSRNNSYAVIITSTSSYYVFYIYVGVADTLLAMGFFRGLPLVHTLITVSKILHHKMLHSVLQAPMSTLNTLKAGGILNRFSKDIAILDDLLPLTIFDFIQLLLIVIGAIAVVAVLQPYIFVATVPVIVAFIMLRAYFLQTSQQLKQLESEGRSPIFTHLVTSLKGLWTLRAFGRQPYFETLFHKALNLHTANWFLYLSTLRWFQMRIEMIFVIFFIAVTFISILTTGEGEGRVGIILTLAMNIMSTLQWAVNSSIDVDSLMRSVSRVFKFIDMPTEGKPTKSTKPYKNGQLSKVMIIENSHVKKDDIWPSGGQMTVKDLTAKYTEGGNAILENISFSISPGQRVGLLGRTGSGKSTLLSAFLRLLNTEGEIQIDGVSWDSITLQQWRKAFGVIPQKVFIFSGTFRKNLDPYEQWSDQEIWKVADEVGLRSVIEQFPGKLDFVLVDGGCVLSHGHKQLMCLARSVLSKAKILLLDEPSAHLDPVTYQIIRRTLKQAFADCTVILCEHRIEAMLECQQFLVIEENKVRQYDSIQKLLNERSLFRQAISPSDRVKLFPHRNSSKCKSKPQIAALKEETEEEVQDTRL

| Structure (SMILES) | Ent. A Max Activity (%) (Enteroid Assay A) | EC50 (Enteroid Assay A) [µM] | also measured |
| --- | --- | --- | --- |
| Cc1cccc(C)c1-c1cc2nc(n1)NS(=O)(=O)c1cccc(c1)C(=O)N1CCN(C[C@@H]3CC(C)(C)NC3=O)C[C@@H]1CO2 (stereo in doubt) [Compound 293] | – | – | Ent. A Max Activity (%) [1]: + (+ is <300%) |
| Cc1cccc(C)c1-c1cc2nc(n1)NS(=O)(=O)c1cccc(c1)C(=O)N1Cc3ccccc3[C@@H](O2)[C@H]1CC(C)C (stereo in doubt) [Compound 332] | – | – | EC50 [2]: < 1 µM; Ent. A Max Activity (%) [1]: +++ (+++ is >60%) |
| Cc1cccc(C)c1-c1cc2nc(n1)NS(=O)(=O)c1cccc(c1)C(=O)N1CCNC[C@H](C1)O2 [Compound 2, (16R)-12-(2,6-Dimethylphenyl)-15-oxa-8λ^6-thia-1,9,11,18,22-pentaazatetracyclo[14.4.1.13,7.110,14]tricosa-3,5,7(23),10,12,14(22)-hexaene-2,8,8-trione] | – | – | EC50 [2]: 3 to 30 µM; Ent. A Max Activity (%) [1]: +++ (+++ is >60%) |
| Cc1cccc(C)c1-c1cc2nc(n1)NS(=O)(=O)c1cccc(c1)C(=O)N1CCN(C3CC4(CCCCC4)C3)C[C@H](C1)O2 [Compound 3, (16R)-12-(2,6-Dimethylphenyl)-18-{spiro[3.5]nonan-2-yl}-15-oxa-8λ^6-thia-1,9,11,18,22-pentaazatetracyclo[14.4.1.13,7.110,14]tricosa-3(23),4,6,10(22),11,13-hexaene-2,8,8-trione] | +++ (+++ is >600%) | < 1 | – |
| Cc1cccc(C)c1-c1cc2nc(n1)NS(=O)(=O)c1cccc(c1)C(=O)N1CCN(C3CCC(F)(F)CC3)C[C@H](C1)O2 [Compound 4, (16R)-18-(4,4-Difluorocyclohexyl)-12-(2,6-dimethylphenyl)-15-oxa-8λ^6-thia-1,9,11,18,22-pentaazatetracyclo[14.4.1.13,7.110,14]tricosa-3(23),4,6,10(22),11,13-hexaene-2,8,8-trione] | +++ (+++ is >600%) | < 1 | – |
| Cc1cccc(C)c1-c1cc2nc(n1)NS(=O)(=O)c1cccc(c1)C(=O)N1CCN(C3CCC(C)(C)CC3)C[C@H](C1)O2 [Compound 5, (16R)-18-(4,4-Dimethylcyclohexyl)-12-(2,6-dimethylphenyl)-15-oxa-8λ^6-thia-1,9,11,18,22-pentaazatetracyclo[14.4.1.13,7.110,14]tricosa-3(23),4,6,10,12,14(22)-hexaene-2,8,8-trione] | – | – | Ent. A Max Activity (%): +++ (key: +++ is >600%; ++ is 30-60%; + is <30%); EC50: < 1 µM |
| Cc1cccc(C)c1-c1cc2nc(n1)NS(=O)(=O)c1cccc(c1)C(=O)N1CCN(C3CCCC3)C[C@H](C1)O2 [Compound 6, (16R)-18-cyclopentyl-12-(2,6-dimethylphenyl)-8,8-dioxo-15-oxa-8λ^6-thia-1,9,11,18,22-pentazatetracyclo[14.4.1.13,7.110,14]tricosa-3,5,7(23),10(22),11,13-hexaen-2-one] | +++ (+++ is >600%) | < 1 | – |
| Cc1cccc(C)c1-c1cc2nc(n1)NS(=O)(=O)c1cccc(c1)C(=O)N1CCN(C3CC4(CCCC4)C3)C[C@H](C1)O2 [Compound 8, (16R)-12-(2,6-Dimethylphenyl)-18-{spiro[3.4]octan-2-yl}-15-oxa-8λ^6-thia-1,9,11,18,22-pentaazatetracyclo[14.4.1.13,7.110,14]tricosa-3(23),4,6,10(22),11,13-hexaene-2,8,8-trione] | +++ (+++ is >600%) | < 1 | – |
| CCC(CC)N1CCN2C[C@@H](C1)Oc1cc(-c3c(C)cccc3C)nc(n1)NS(=O)(=O)c1cccc(c1)C2=O [Compound 11, (16R)-12-(2,6-Dimethylphenyl)-18-(1-ethylpropyl)-8,8-dioxo-15-oxa-8λ^6-thia-1,9,11,18,22-pentazatetracyclo[14.4.1.13,7.110,14]tricosa-3,5,7(23),10,12,14(22)-hexaen-2-one] | +++ (+++ is >600%) | < 1 | – |
| Cc1cccc(C)c1-c1cc2nc(n1)NS(=O)(=O)c1cccc(c1)C(=O)N1CCN(C3CCC4(CCCCC4)CC3)C[C@H](C1)O2 [Compound 12] | +++ (+++ is >600%) | < 1 | – |
| Cc1cccc(C)c1-c1cc2nc(n1)NS(=O)(=O)c1cccc(c1)C(=O)N1CCN(C3CCC4(CC3)CC4)C[C@H](C1)O2 [Compound 13] | +++ (+++ is >600%) | < 1 | – |
| Cc1cccc(C)c1-c1cc2nc(n1)NS(=O)(=O)c1cccc(c1)C(=O)N1CCN(CC3(C)CCOCC3)C[C@H](C1)O2 [Compound 14] | +++ (+++ is >600%) | < 1 | – |
| Cc1cccc(C)c1-c1cc2nc(n1)NS(=O)(=O)c1cccc(c1)C(=O)N1CCN(C3CCC4CC43)C[C@H](C1)O2 (stereo partly shown) [Compound 15] | +++ (+++ is >600%) | < 1 | – |
| Cc1cccc(C)c1-c1cc2nc(n1)NS(=O)(=O)c1cccc(c1)C(=O)N1CCN(Cc3ccc(C(C)(C)C)cc3)C[C@H](C1)O2 [Compound 16] | +++ (+++ is >600%) | < 1 | – |
| Cc1cccc(C)c1-c1cc2nc(n1)NS(=O)(=O)c1cccc(c1)C(=O)N1CCN(CC3C4(CC4)C34CC4)C[C@H](C1)O2 [Compound 17] | +++ (+++ is >600%) | < 1 | – |
| Cc1cccc(C)c1-c1cc2nc(n1)NS(=O)(=O)c1cccc(c1)C(=O)N1CCN(CCC3C4(CC4)C34CC4)C[C@H](C1)O2 [Compound 18] | + (+ is <30%) | 1 to 3 | – |

| Structure (SMILES) | Ent. A Max Activity (%) (Enteroid Assay A) | EC50 (Enteroid Assay A) [µM] | also measured |
| --- | --- | --- | --- |
| Cc1cccc(C)c1-c1cc2nc(n1)NS(=O)(=O)c1cccc(c1)C(=O)N1CCN(CC(C)(C)C)C[C@H](C1)O2 [Compound 19] | +++ (+++ is >600%) | < 1 | – |
| Cc1cccc(C)c1-c1cc2nc(n1)NS(=O)(=O)c1cccc(c1)C(=O)N1CCN(C3C(C)(C)CC3(C)C)C[C@H](C1)O2 [Compound 20] | +++ (+++ is >600%) | < 1 | – |
| Cc1cccc(C)c1-c1cc2nc(n1)NS(=O)(=O)c1cccc(c1)C(=O)N1CCN(C3CC(F)(F)C3)C[C@H](C1)O2 [Compound 21] | +++ (+++ is >600%) | < 1 | – |
| Cc1cccc(C)c1-c1cc2nc(n1)NS(=O)(=O)c1cccc(c1)C(=O)N1CCN(C3CCCCC3)C[C@H](C1)O2 [Compound 22] | +++ (+++ is >600%) | < 1 | – |
| Cc1cccc(C)c1-c1cc2nc(n1)NS(=O)(=O)c1cccc(c1)C(=O)N1CCN(C3CC4(CC4)C3)C[C@H](C1)O2 [Compound 23] | +++ (+++ is >600%) | < 1 | – |
| Cc1cccc(C)c1-c1cc2nc(n1)NS(=O)(=O)c1cccc(c1)C(=O)N1CCN(C3CC(C)(C)C3)C[C@H](C1)O2 [Compound 24] | ++ (++ is 30-60%) | < 1 | – |
| Cc1cccc(C)c1-c1cc2nc(n1)NS(=O)(=O)c1cccc(c1)C(=O)N1CCN(C3CC4(COC4)C3)C[C@H](C1)O2 [Compound 25] | ++ (++ is 30-60%) | 3 to 30 | – |
| Cc1cccc(C)c1-c1cc2nc(n1)NS(=O)(=O)c1cccc(c1)C(=O)N1CCN(C3CC4(CCC4)C3)C[C@H](C1)O2 [Compound 26] | +++ (+++ is >600%) | < 1 | – |
| Cc1cccc(C)c1-c1cc2nc(n1)NS(=O)(=O)c1cccc(c1)C(=O)N1CCN(C3CCC3)C[C@H](C1)O2 [Compound 27] | ++ (++ is 30-60%) | < 1 | – |
| Cc1cccc(C)c1-c1cc2nc(n1)NS(=O)(=O)c1cccc(c1)C(=O)N1CCN(C3CCOCC3)C[C@H](C1)O2 [Compound 28] | +++ (+++ is >600%) | 3 to 30 | – |
| Cc1cccc(C)c1-c1cc2nc(n1)NS(=O)(=O)c1cccc(c1)C(=O)N1CCN(CC3CC(C(=O)O)C3)C[C@H](C1)O2 (stereo partly shown) [Compound 29] | +++ (+++ is >600%) | 3 to 30 | – |
| Cc1cccc(C)c1-c1cc2nc(n1)NS(=O)(=O)c1cccc(c1)C(=O)N1CCN(CC3CCOC3)C[C@H](C1)O2 (stereo partly shown) [Compound 30] | +++ (+++ is >600%) | 1 to 3 | – |
| CCCN1CCN2C[C@@H](C1)Oc1cc(-c3c(C)cccc3C)nc(n1)NS(=O)(=O)c1cccc(c1)C2=O [Compound 31] | +++ (+++ is >600%) | < 1 | – |
| CCCCN1CCN2C[C@@H](C1)Oc1cc(-c3c(C)cccc3C)nc(n1)NS(=O)(=O)c1cccc(c1)C2=O [Compound 32] | +++ (+++ is >600%) | < 1 | – |
| Cc1cccc(C)c1-c1cc2nc(n1)NS(=O)(=O)c1cccc(c1)C(=O)N1CCN(CCCCO)C[C@H](C1)O2 [Compound 33] | +++ (+++ is >600%) | 3 to 30 | – |
